Laboratory results reported in patent US6809109B2, “2, 4-disubstituted-pyridine N-oxides useful as HIV reverse transcriptase inhibitors” (Bristol-Myers Squibb Company, priority 2002, dated 2004).
Converted amounts (≈) assume the structure as drawn.

System: HIV-1 (RF)
Assay: HIV RNA assay, microplate based compound evaluation in HIV-1 infected MT-2 cells
Assay type: cell-based
Details: Human immunodeficiency virus 1, MT2, 72 h; HIV-1 (RF) infected MT-2 cells, 3 days of culture; value used to standardize the virus inoculum; read-out: IC90 (concentration of compound required to reduce the HIV RNA level by 90%)
Method: Plasmid pDAB 72 containing both gag and pol sequences of BH10 (bp 113-1816) cloned into PTZ 19R was prepared according to Erickson-Viitanen et al. AIDS Research and Human Retroviruses 1989, 5, 577. The plasmid was linearized with Bam HI prior to the generation of in vitro RNA transcripts using the Riboprobe Gemini system II kit (Promega) with T7 RNA polymerase. Synthesized RNA was purified by treatment with RNase free DNAse (Promega), phenol-chloroform extraction, and ethanol precipitation. RNA transcripts were dissolved in water, and stored at −70° C. The concentration of RNA was determined from the A260.
Biotinylated capture probes were purified by HPLC after synthesis on an Applied Biosystems (Foster City, Calif.) DNA synthesizer by addition of biotin to the 5′ terminal end of the oligonucleotide, using the biotin-phosphoramidite reagent of Cocuzza, Tet. Lett. 1989, 30, 6287. […]
MT-2 and MT-4 cells were maintained in RPMI 1640 supplemented with 5% fetal calf serum (FCS) for MT-2 cells or 10% FCS for MT-4 cells, 2 mM L-glutamine and 50 μg/mL gentamycin, all from Gibco. […] Infectious titers of HIV-1(RF) stocks were 1-3×10^7 PFU (plaque forming units)/mL as measured by plaque assay on MT-2 cells (see below). […]

Question: For Nc1ccn([C@H]2CC[C@@H](CO)O2)c(=O)n1 [ddC, dideoxycytidine], which IC90 is on record?
Answer: Its IC90 is 0.2 µg/mL (≈ 0.947 µM).
